Test results: DBAASP
Converted amounts (≈) assume the structure as drawn. One block for each compound: values may come before it.

Tests used:
Assay in all cases: ≥ marks a high value that may be exact or a test limit, other limits are often not marked, values filed in µg/mL are converted to µM
[1] = test system: Cryptococcus neoformans CM133
[2] = test system: Aspergillus fumigatus ATCC MYA-1163
[3] = test system: Fusarium solani AZN 6836
[4] = test system: Candida tropicalis
[5] = test system: Rhizopus oryzae AZN 8892
[6] = test system: Candida albicans ATCC 24433
[7] = test system: Pseudomonas aeruginosa ATCC 27853
[8] = test system: Fusarium oxysporum
[9] = test system: Staphylococcus aureus ATCC 25923
[10] = test system: Salmonella enterica subsp. enterica serovar Enteritidis
[11] = test system: Enterococcus faecalis ATCC 29212
[12] = test system: Aspergillus nidulans AZN 2867
[13] = test system: Klebsiella pneumoniae ATCC 10031
[14] = test system: Candida krusei
[15] = test system: Escherichia coli ATCC 25922
[16] = test system: Staphylococcus aureus ATCC 43300
[17] = test system: Aspergillus ustus
[18] = test system: Candida glabrata
[19] = test system: Legionella pneumophila ATCC 33155
[20] = test system: Legionella longbeachae ATCC 33484
[21] = test system: Legionella bozemanae ATCC 33217
[22] = test system: Legionella pneumophila Paris
[23] = test system: Legionella pneumophila Corby
[24] = test system: Legionella pneumophila ATCC 33215
[25] = test system: Legionella pneumophila ATCC 33216
[26] = test system: Bacillus megaterium F04
[27] = test system: Legionella feeleii ATCC 35072
[28] = test system: Legionella oakridgensis ATCC 33761
[29] = test system: Legionella pneumophila Lens
[30] = test system: Legionella micdadei ATCC 33218
[31] = test system: Staphylococcus aureus ATCC BAA-39
[32] = test system: Salmonella enterica subsp. enterica serovar Typhimurium ATCC 700408
[33] = test system: Salmonella enterica subsp. enterica serovar Typhimurium ATCC 14028
[34] = test system: Listeria monocytogenes ATCC 19115
[35] = test system: Klebsiella pneumoniae ATCC 13883
[36] = test system: Staphylococcus epidermidis C621
[37] = test system: Escherichia coli UB1005
[38] = test system: Corynebacterium xerosis C875
[39] = test system: Escherichia coli DC2
[40] = test system: Staphylococcus haemolyticus
[41] = test system: Salmonella typhimurium
[42] = test system: Bacillus megaterium
[43] = test system: Listeria monocytogenes
[44] = test system: Klebsiella pneumoniae
[45] = test system: Escherichia coli 363

SMILES: CC(C)C[C@@H]1NC(=O)[C@@H](NC(=O)[C@@H](N)CC(=O)O)CSSC[C@@H](C(=O)O)NC(=O)CNC(=O)[C@H](CCC(=O)O)NC(=O)[C@@H]2CSSC[C@@H]3NC(=O)[C@H](C(C)C)NC(=O)[C@H](CCCN=C(N)N)NC(=O)[C@H](CCCN=C(N)N)NC(=O)[C@@H]4CSSC[C@H](NC(=O)[C@H](CCCCN)NC(=O)[C@H](CC(C)C)NC(=O)[C@H](CO)NC(=O)[C@@H]5CCCN5C(=O)[C@H](CO)NC(=O)[C@H](CSSC[C@H](NC(=O)[C@@H]5CCCN5C(=O)CNC(=O)[C@H](CCCCN)NC(=O)[C@H](Cc5ccc(O)cc5)NC(=O)[C@H](CCCN=C(N)N)NC(=O)CNC(=O)[C@H](CO)NC1=O)C(=O)N[C@@H](C)C(=O)N[C@@H](C(C)C)C(=O)N[C@@H](Cc1c[nH]c5ccccc15)C(=O)N[C@@H](CC(=O)O)C(=O)N[C@@H](CC(N)=O)C(=O)N[C@@H](CCC(=O)O)C(=O)N[C@@H]([C@@H](C)O)C(=O)N4)NC(=O)[C@H](Cc1cnc[nH]1)NC(=O)CNC(=O)[C@H](CO)NC(=O)[C@H](CO)NC(=O)[C@H](CCCN=C(N)N)NC(=O)CNC(=O)[C@H](CCC(=O)O)NC(=O)[C@H](CCC(=O)O)NC(=O)[C@H](CCCCN)NC3=O)C(=O)N[C@@H](Cc1c[nH]c3ccccc13)C(=O)N2 [DCLSGRYKGPCAVWDNETCRRVCKEEGRSSGHCSPSLKCWCEGC]
MIC [1]: ≥ 50 µM
MIC [2]: 6.25 µM (≈ 30.6 µg/mL)
MIC [3]: 25 µM (≈ 122 µg/mL)
MIC [4]: ≥ 50 µM
MIC [5]: ≥ 50 µM
MIC [6]: ≥ 50 µM
MIC [7]: > 50 µM
MIC [8]: 6.25 µM (≈ 30.6 µg/mL)
MIC [9]: > 50 µM
MIC [10]: ≥ 50 µM
MIC [11]: > 50 µM
MIC [12]: ≥ 50 µM
MIC [13]: ≥ 50 µM
MIC [14]: ≥ 50 µM
MIC [15]: > 50 µM
MIC [16]: > 50 µM
MIC [17]: 25 µM (≈ 122 µg/mL)
MIC [18]: ≥ 50 µM

SMILES: CC(C)C[C@H](NC(=O)[C@H](CCCN=C(N)N)NC(=O)CNC(=O)[C@H](CCC(N)=O)NC(=O)[C@@H]1CCCN1C(=O)[C@H](CC(C)C)NC(=O)[C@H](CCCCN)NC(=O)[C@H](Cc1ccccc1)NC(=O)[C@@H](NC(=O)[C@@H]1CCCN1C(=O)[C@H](CCC(N)=O)NC(=O)[C@H](CO)NC(=O)[C@H](Cc1ccccc1)NC(=O)[C@H](CCCN=C(N)N)NC(=O)[C@@H](N)CCC(N)=O)[C@@H](C)O)C(=O)N[C@H](C(=O)N[C@@H](CC(C)C)C(=O)N[C@@H](CO)C(=O)N[C@@H](CCCN=C(N)N)C(=O)N[C@@H](CCCCN)C(=O)N[C@@H](Cc1ccccc1)C(=O)O)[C@@H](C)O [QRFSQPTFKLPQGRLTLSRKF]
MIC [31]: ≥ 39.4 µM
MIC [32]: 9.86 µM (≈ 25 µg/mL)
MIC [33]: 9.86 µM (≈ 25 µg/mL)
MIC [9]: 39.4 µM (≈ 100 µg/mL)
MIC [34]: 9.86 µM (≈ 25 µg/mL)
MIC [15]: 9.86 µM (≈ 25 µg/mL)
MIC [16]: 39.4 µM (≈ 100 µg/mL)
MIC [35]: 9.86 µM (≈ 25 µg/mL)

SMILES: CC(C)C[C@H](NC(=O)[C@H](C)NC(=O)[C@H](C)NC(=O)[C@H](C)NC(=O)[C@H](CCCCN)NC(=O)[C@@H](N)CCCCN)C(=O)N[C@@H](C)C(=O)N[C@@H](C)C(=O)N[C@@H](C)C(=O)N[C@@H](C)C(=O)N[C@@H](C)C(=O)N[C@@H](CC(C)C)C(=O)N[C@@H](C)C(=O)N[C@@H](C)C(=O)N[C@@H](Cc1c[nH]c2ccccc12)C(=O)N[C@@H](C)C(=O)N[C@@H](C)C(=O)N[C@@H](CC(C)C)C(=O)N[C@@H](C)C(=O)N[C@@H](C)C(=O)N[C@@H](C)C(=O)N[C@@H](CCCCN)C(=O)N[C@@H](CCCCN)C(=O)N[C@@H](CCCCN)C(=O)N[C@@H](CCCCN)C(N)=O [KKAAALAAAAALAAWAALAAAKKKK]
MIC [36]: 2 µM (≈ 4.76 µg/mL)
MIC [37]: ≥ 32 µM
MIC [38]: 0.25 µM (≈ 0.594 µg/mL)
MIC [39]: 16 µM (≈ 38 µg/mL)

Further lines, with some results ahead:

MIC [19]: 18.1 µM (≈ 50 µg/mL)
MIC [20]: 18.1 µM (≈ 50 µg/mL)
MIC [21]: 18.1 µM (≈ 50 µg/mL)
MIC [22]: 18.1 µM (≈ 50 µg/mL)
MIC [23]: 18.1 µM (≈ 50 µg/mL)
MIC [24]: 18.1 µM (≈ 50 µg/mL)
MIC [25]: 18.1 µM (≈ 50 µg/mL)
MIC [26]: 4.35 µM (≈ 12 µg/mL)
MIC [27]: 18.1 µM (≈ 50 µg/mL)
MIC [28]: 18.1 µM (≈ 50 µg/mL)
MIC [29]: 1.09 µM (≈ 3 µg/mL)
MIC [30]: 18.1 µM (≈ 50 µg/mL)
SMILES: CC[C@H](C)[C@H](NC(=O)[C@H](CC(C)C)NC(=O)[C@H](CCCCN)NC(=O)[C@@H](NC(=O)[C@H](CC(C)C)NC(=O)[C@H](CC(=O)O)NC(=O)CNC(=O)[C@@H](NC(=O)[C@@H](NC(=O)[C@H](CO)NC(=O)[C@@H](NC(=O)[C@@H](NC(=O)[C@H](CC(=O)O)NC(=O)[C@H](C)NC(=O)[C@H](C)NC(=O)[C@@H](N)CCSC)[C@@H](C)CC)[C@@H](C)CC)[C@@H](C)O)[C@@H](C)CC)C(C)C)C(=O)N[C@H](C(=O)N[C@@H](CC(N)=O)C(=O)N[C@H](C(=O)N[C@H](C(=O)N[C@@H](CCCCN)C(=O)N[C@@H](CCCCN)C(=O)N[C@@H](Cc1ccccc1)C(=O)N[C@@H](CCC(N)=O)C(=O)N[C@@H](CCCCN)C(=O)O)C(C)C)[C@@H](C)O)[C@@H](C)CC [MAADIISTIGDLVKLIINTVKKFQK]

MIC [41]: 3.1 µM (≈ 9.41 µg/mL)
MIC [42]: 0.4 µM (≈ 1.21 µg/mL)
MIC [43]: 0.4 µM (≈ 1.21 µg/mL)
MIC [44]: 12.5 µM (≈ 37.9 µg/mL)
MIC [45]: 3.1 µM (≈ 9.41 µg/mL)
SMILES: CC[C@H](C)[C@H](NC(=O)[C@H](CCSC)NC(=O)[C@H](CC(C)C)NC(=O)[C@H](CC(C)C)NC(=O)[C@@H](NC(=O)[C@H](Cc1c[nH]c2ccccc12)NC(=O)[C@H](CC(C)C)NC(=O)[C@H](Cc1c[nH]c2ccccc12)NC(=O)[C@@H](NC(=O)[C@H](CCCCN)NC(=O)[C@H](CO)NC(=O)[C@H](CCCNC(=N)N)NC(=O)[C@H](CC(C)C)NC(=O)CN)[C@@H](C)CC)C(C)C)C(=O)N[C@@H](Cc1c[nH]c2ccccc12)C(=O)N[C@@H](CCC(N)=O)C(=O)N[C@@H](CCC(=O)O)C(=O)N[C@@H](CO)C(=O)N[C@@H](CC(N)=O)C(=O)N[C@@H](CCCCN)C(=O)N[C@@H](Cc1ccccc1)C(=O)N[C@@H](CCCCN)C(=O)N[C@@H](CCCCN)C(=O)N[C@@H](CCSC)C(=O)O [GLRSKIWLWVLLMIWQESNKFKKM]
MIC [40]: 12.5 µM (≈ 37.9 µg/mL)
